Test results published in US9700547B2, “Use of 6-hydroxy-2-pyridones and derivatives thereof for preparing a pharmaceutical composition that acts by inhibiting the human uridine phosphorylase enzyme” (UNIÃO BRASILEIRA DE EDUCAÇÃO E ASSISTÊNCIA, MANTENEDORA DA …, priority 2013, dated 2017).

Tests used:
[1] = tested on: intestinal mucositis caused by 5-FU; assay: intestinal mucositis model caused by 5-FU (weight, diarrhea, villus histology); type: in vivo, female Wistar mouse
Protocol: The compound c3 was tested in in vivo for evaluating its protection regarding intestinal mucositis caused by 5-FU. The mucositis model was developed in female Wistar mouse (180-200 g) and the animals were divided into 5 groups with 4 animals in each group: Group 1: Saline+Saline Group 2: Compound c3 (150 mg/kg)+saline Group 3: Saline+5-FU (50 mg/kg) Group 4: Compound c3 (50 mg/kg)+5-FU (50 mg/kg) Group 5: Compound c3 (150 mg/kg)+5-FU (50 mg/kg) The test compound was administrated via oral, 30 minutes before administrating the chemotherapeutic 5-FU that was administrated via intraperitoneal. This treatment was followed for 5 days with once a day administrations. In the 5th treatment day, the animals were euthanized using one inhalational anesthetic (isoflurane) and the initial portion of the intestine (corresponding to jejunum and ileus) was collected for myeloperoxidase analysis (MPO) and histological analysis of the tissue, as well blood collect for quantification analysis of the uridine in the plasma. The animals were also followed-up regarding weight loss and diarrhea.

[2] = target: T1, Human Phosphorylase Uridine 1 (hUP1) (Homo sapiens, UniProt Q16831); assay: hUP1 enzymatic assay, inhibition at 1 μM (UV absorbance of uridine at 280 nm); type: biochemical; details: 1 μM compound, 37° C.
T1 sequence (Q16831 whole entry): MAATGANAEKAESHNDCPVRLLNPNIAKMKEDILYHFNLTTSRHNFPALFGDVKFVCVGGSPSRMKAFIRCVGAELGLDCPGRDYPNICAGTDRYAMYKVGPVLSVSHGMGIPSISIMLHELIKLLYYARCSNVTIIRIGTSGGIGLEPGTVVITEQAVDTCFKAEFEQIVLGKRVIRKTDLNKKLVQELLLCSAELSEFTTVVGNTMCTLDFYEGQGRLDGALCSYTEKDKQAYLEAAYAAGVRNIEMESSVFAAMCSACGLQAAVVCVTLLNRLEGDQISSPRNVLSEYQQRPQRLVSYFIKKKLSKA
Protocol: (§1) The enzymatic activity of the hUP1 is performed through the enzymatic essay using one spectrophotometer UV/visible where the absorbance reduction of uridine in 280 nm, for 1 min and at 37° C. was monitored.
For determining which inhibitors would be selected for determining the inhibition constant (Ki), one cut point of 1 μM was stipulated, where only those compounds that would inhibit more than 60% of the initial activity of the enzyme would be selected for this type of analysis (Table 1). From all compounds tested, 7 molecules had its inhibition above 60% with the concentration of 1 μM (Compounds c1, c2, c3, c4, c6, c12, and c13). All essays described on this patent application were performed for these compounds and for benzil acyclo uridine (BAU), in order to perform a direct comparison of the results achieved with the better in vitro inhibitor of the hUP1 described (standard).

[3] = target: T1, Human Phosphorylase Uridine 1 (hUP1); assay: Ki and inhibition type from substrate saturation curves, double-reciprocal analysis; type: biochemical; details: for Inhibiting type for phosphate: substrate Pi; for Inhibition type for uridine: substrate uridine
Protocol: as §1
For determining Ki for the selected inhibitors, we performed saturation curves where the concentration of one of the substrates is fixed next to the Km and the concentration of another, varied until the saturation in fixed-varying concentrations of each one of the inhibitors.
(I) v=VA/[Ka(1+I/Kii)+A(1+Kis)] (II) v=VA/[A(1+I/Kis)+Ka] (III)

hUP1-R1P = hUP1-R1P (Homo sapiens, UniProt Q16831); assay: isothermal titration microcalorimetry (ITC), enzyme complexed with product ribose-1-phosphate; type: binding
Chain of hUP1-R1P (Q16831 whole entry): as above
Protocol: (§2) For determining the thermodynamic parameters (enthalpy variation—ΔH, entropy variation—ΔS, and free energy variation of Gibbs—ΔG) were performed compounds binding essays to the enzyme in different conditions: free enzyme, complexed enzyme with the substrate Pi, and the complexed enzyme with the product ribose-1-phosphate (R1P). For such analyses, it was used isothermal titration microcalorimetry (ITC) where the equipment monitors the difference of transferred heat, between the reference cell and the sample cell, when bindings are formed or broken during the binding process. The data analysis achieved was performed through the model One Set of Sites and the determination of ΔG and the dissociation constant (KD) were through the equations (IV) and (V) below, respectively: ΔG=ΔH−TΔS (IV) KD=1/Ka (V)

hUP1 = hUP1 (Homo sapiens, UniProt Q16831); assay: isothermal titration microcalorimetry (ITC), free enzyme; type: binding
Chain of hUP1 (Q16831 whole entry): as above
Protocol: as §2

hUP1-Pi = hUP1-Pi (Homo sapiens, UniProt Q16831); assay: isothermal titration microcalorimetry (ITC), enzyme complexed with substrate Pi; type: binding
Chain of hUP1-Pi (Q16831 whole entry): as above
Protocol: as §2

| inhibition at 1 µM [2] | Inhibiting type for phosphate [3] | Inhibition type for uridine [3] | Kd (hUP1-R1P; hUP1-R1P 50 μM) | ΔG° (hUP1-R1P; hUP1-R1P 50 μM) | ΔH° (hUP1-R1P; hUP1-R1P 50 μM) | −TΔS (kcal/mol/deg) (hUP1-R1P; hUP1-R1P 50 μM) | Kd (hUP1-R1P; hUP1-R1P 150 μM) | ΔG° (hUP1-R1P; hUP1-R1P 150 μM) | ΔH° (hUP1-R1P; hUP1-R1P 150 μM) | −TΔS (kcal/mol/deg) (hUP1-R1P; hUP1-R1P 150 μM) | Inhibition with 1 μM (%) [2] | Kd (hUP1) | ΔG° (hUP1) | ΔH° (hUP1) | −TΔS (kcal/mol/deg) (hUP1) | Compound | other results |
| --- | --- | --- | --- | --- | --- | --- | --- | --- | --- | --- | --- | --- | --- | --- | --- | --- | --- |
| 49% |  |  |  |  |  |  |  |  |  |  |  |  |  |  |  | Cc1c(CN2CCCCC2)c(O)[nH]c(=O)c1C#N [Compound c5] |  |
| 25% |  |  |  |  |  |  |  |  |  |  |  |  |  |  |  | CCc1cc(O)[nH]c(=O)c1C#N [Compound c8] |  |
| 20% |  |  |  |  |  |  |  |  |  |  |  |  |  |  |  | CCCN(CCC)Cc1c(O)[nH]c(=O)c(C#N)c1C [Compound c10] |  |
|  | Uncompetitive | Competitive | 7 ± 0.661 µM | -7.3 ± 0.7 kcal/mol | -18 ± 0.4 kcal/mol | 10 ± 1.0 kcal/mol | 7 ± 2.12 µM | -7.3 ± 2.2 kcal/mol | -10 ± 1.0 kcal/mol | 3.3 ± 1.0 kcal/mol | 82% | 5.3 ± 0.674 µM | -7.4 ± 1.0 kcal/mol |  | 16 ± 2.0 kcal/mol/deg | Cc1c(CNC(CO)CO)c(O)[nH]c(=O)c1C#N [c6] | Kd (hUP1-Pi): 0.502 ± 0.083 µM; ΔG° (hUP1-Pi): -9.0 ± 1.5 kcal/mol; ΔH° (hUP1-Pi): -14 ± 0.2 kcal/mol; −TΔS (kcal/mol/deg) (hUP1-Pi): 5.0 ± 0.8 kcal/mol/deg |

Further lines, the molecule ahead of its results:

| Compound | inhibition at 1 µM [2] | Inhibiting type for phosphate [3] | Inhibition type for uridine [3] | Kd (hUP1-R1P; hUP1-R1P 50 μM) | ΔG° (hUP1-R1P; hUP1-R1P 50 μM) | ΔH° (hUP1-R1P; hUP1-R1P 50 μM) | −TΔS (kcal/mol/deg) (hUP1-R1P; hUP1-R1P 50 μM) | Kd (hUP1-R1P; hUP1-R1P 150 μM) | ΔG° (hUP1-R1P; hUP1-R1P 150 μM) | ΔH° (hUP1-R1P; hUP1-R1P 150 μM) | −TΔS (kcal/mol/deg) (hUP1-R1P; hUP1-R1P 150 μM) | Inhibition with 1 μM (%) [2] | Kd (hUP1) | ΔG° (hUP1) | ΔH° (hUP1) | −TΔS (kcal/mol/deg) (hUP1) | other results |
| --- | --- | --- | --- | --- | --- | --- | --- | --- | --- | --- | --- | --- | --- | --- | --- | --- | --- |
| O=c1[nH]cc(F)c(=O)[nH]1 [Compound 5-FU, 5-fluorouracil, reference compound] |  |  |  |  |  |  |  |  |  |  |  |  |  |  |  |  | diarrhea ([1]; 5-FU 50 mg/kg intraperitoneal, once a day, all groups that received the chemotherapeutic): developed severe diarrhea; weight loss ([1]; 5-FU 50 mg/kg intraperitoneal, once a day, with or without the compound, day 1 vs day 6): had a weight loss and this was significant; intestinal villus (histological analysis) ([1]; group that received only 5-FU, 50 mg/kg intraperitoneal): villus totally damaged |
| N#Cc1c(-c2ccccc2)cc(O)[nH]c1=O [Compound c7] | 42% |  |  |  |  |  |  |  |  |  |  |  |  |  |  |  |  |
| CCN(CC)Cc1c(O)[nH]c(=O)c(C#N)c1C [Compound c9] | 25% |  |  |  |  |  |  |  |  |  |  |  |  |  |  |  |  |
| Cc1c(Cc2ccccc2)c(O)[nH]c(=O)c1C#N [Compound c11] | 43% |  |  |  |  |  |  |  |  |  |  |  |  |  |  |  |  |
| O=c1[nH]cc(CNCCO)c(=O)[nH]1 [Compound c14] | 2% |  |  |  |  |  |  |  |  |  |  |  |  |  |  |  |  |
| Cc1c(CN(C)C)c(O)[nH]c(=O)c1C#N [c1] |  | Uncompetitive | Competitive | 7.4 ± 0.381 µM | -7.2 ± 0.4 kcal/mol | -22 ± 0.4 kcal/mol | 14 ± 0.7 kcal/mol | 10 ± 1.32 µM | -7.0 ± 0.9 kcal/mol | -23 ± 0.1 kcal/mol | 16 ± 2.1 kcal/mol | 81% | 4.2 ± 0.602 µM | -7.6 ± 1.1 kcal/mol | -6.7 ± 0.2 kcal/mol | 0.8 ± 0.1 kcal/mol/deg | Kd (hUP1-Pi): 0.312 ± 0.073 µM; ΔG° (hUP1-Pi): -9.1 ± 2.1 kcal/mol; ΔH° (hUP1-Pi): -12 ± 0.2 kcal/mol; −TΔS (kcal/mol/deg) (hUP1-Pi): 2.6 ± 0.6 kcal/mol/deg |
| Cc1c(CNCCO)c(O)[nH]c(=O)c1C#N [c2] | > 60% | Uncompetitive | Competitive | 2.3 ± 0.423 µM | -8.0 ± 1.5 kcal/mol | -17 ± 0.6 kcal/mol | 9.5 ± 1.7 kcal/mol | 3.8 ± 0.553 µM | -7.6 ± 1.1 kcal/mol | -30 ± 1.5 kcal/mol | 23 ± 3.3 kcal/mol | 80% | 2 ± 0.221 µM | -8.0 ± 0.9 kcal/mol | -23 ± 0.5 kcal/mol | 14 ± 1.5 kcal/mol/deg | Kd (hUP1-Pi): 0.151 ± 0.034 µM; ΔG° (hUP1-Pi): -9.5 ± 2.1 kcal/mol; ΔH° (hUP1-Pi): -16 ± 0.2 kcal/mol; −TΔS (kcal/mol/deg) (hUP1-Pi): 6.4 ± 1.4 kcal/mol/deg |
| Cc1c(CNCC(O)CO)c(O)[nH]c(=O)c1C#N (stereo not shown) [c4] | > 60% | Uncompetitive | Competitive | 4.6 ± 0.344 µM | -7.5 ± 0.5 kcal/mol | -22 ± 0.5 kcal/mol | 14 ± 1.0 kcal/mol | 9.4 ± 1.04 µM | -7.1 ± 0.8 kcal/mol | -18 ± 0.8 kcal/mol | 11 ± 1.2 kcal/mol | 78% | 20 ± 2.63 µM | -6.7 ± 0.9 kcal/mol | -22 ± 2.2 kcal/mol | 15 ± 2.0 kcal/mol/deg | Kd (hUP1-Pi): 0.263 ± 0.026 µM; ΔG° (hUP1-Pi): -9.3 ± 0.9 kcal/mol; ΔH° (hUP1-Pi): -19 ± 0.1 kcal/mol; −TΔS (kcal/mol/deg) (hUP1-Pi): 10 ± 1.0 kcal/mol/deg |
| N#Cc1ccc(O)[nH]c1=O [c12] | > 60% | Not Competitive | Not competitive | 0.108 ± 0.018 µM | -9.8 ± 1.6 kcal/mol | -15 ± 0.1 kcal/mol | 5.7 ± 0.9 kcal/mol | 0.127 ± 0.048 µM | -9.7 ± 3.7 kcal/mol | -18 ± 0.5 kcal/mol | 8.5 ± 3.2 kcal/mol | 67% | 2.9 ± 0.554 µM | -7.8 ± 1.5 kcal/mol | -9.6 ± 0.3 kcal/mol | 1.7 ± 0.3 kcal/mol/deg |  |
| Cc1cc(O)[nH]c(=O)c1C#N [c13] |  | Not competitive | Not competitive | 1.3 ± 0.197 µM | -8.1 ± 1.2 kcal/mol | -27 ± 0.7 kcal/mol | 19 ± 2.9 kcal/mol | 1.3 ± 0.435 µM | -8.0 ± 2.7 kcal/mol | -35 ± 2.1 kcal/mol | 27 ± 9.1 kcal/mol | 62% | 12 ± 1.82 µM | -6.9 ± 1.0 kcal/mol | -8.7 ± 0.7 kcal/mol | 1.7 ± 0.2 kcal/mol/deg |  |
